Measurements reported in patent publication US9018391B2, “Inhibitors of beta-secretase” (Boehringer Ingelheim International GmbH, priority 2012, dated 2015).

Legend:
[1] = target: truncated human beta-secretase, BACE1 (amino acids 1-454) (Homo sapiens (Human), UniProt P56817); assay: BACE1 Assay (Assay 1), fluorescence quench assay; format: biochemical; settings: pH 4.4
Method: The substrate was dissolved at 1 mg/ml in DMSO.
The assay was performed in the presence of OptiMEM™ (supernatant collected over 24 h and cleared from cellular debris by centrifugation) containing the ectodomain of BACE1, 25 μl water containing the desired 2-fold concentration of test compound and 2% DMSO, 1 μM substrate peptide, 20 mM NaOAc, pH 4.4, and 0.04% Triton-X100 in a total assay volume of 50 μl in a 384 well plate. In general, 25 μl of compound dilution were added to the plate followed by the addition of 10 μl of BACE1 containing OptiMEM™ diluted 1:10 in water with 0.2% Triton X-100. The reaction was started with the addition of 15 μl substrate in NaOAc buffer. The reaction was incubated at rt (dark) in an Envision® multilabel reader (Perkin Elmer) and the cleavage of the substrate was recorded as kinetic for […] at ex: 485 nm, em: 538 nm. Blank wells containing no enzyme were included on each plate.
The intensity of fluorescence was regressed against time in order to derive velocities of reaction in all 384 wells. These velocities were used for calculating percent control using an uninhibited control containing 1% DMSO as 100% and a blank control performed in the absence of enzyme as 0%. IC50 values were calculated by fitting percent control vs. test compound concentration using Assay Explorer®.

[2] = target: hERG channel (Homo sapiens (Human), UniProt Q12809); assay: hERG-Channel Assay (Assay 2), whole-cell patch clamp in HEK293 cells stably transfected with hERG cDNA; format: cell-based; settings: human, HEK293 cells stably transfected with hERG cDNA, pH 7.4, 35° C.
Chain of hERG channel (Q12809 whole entry): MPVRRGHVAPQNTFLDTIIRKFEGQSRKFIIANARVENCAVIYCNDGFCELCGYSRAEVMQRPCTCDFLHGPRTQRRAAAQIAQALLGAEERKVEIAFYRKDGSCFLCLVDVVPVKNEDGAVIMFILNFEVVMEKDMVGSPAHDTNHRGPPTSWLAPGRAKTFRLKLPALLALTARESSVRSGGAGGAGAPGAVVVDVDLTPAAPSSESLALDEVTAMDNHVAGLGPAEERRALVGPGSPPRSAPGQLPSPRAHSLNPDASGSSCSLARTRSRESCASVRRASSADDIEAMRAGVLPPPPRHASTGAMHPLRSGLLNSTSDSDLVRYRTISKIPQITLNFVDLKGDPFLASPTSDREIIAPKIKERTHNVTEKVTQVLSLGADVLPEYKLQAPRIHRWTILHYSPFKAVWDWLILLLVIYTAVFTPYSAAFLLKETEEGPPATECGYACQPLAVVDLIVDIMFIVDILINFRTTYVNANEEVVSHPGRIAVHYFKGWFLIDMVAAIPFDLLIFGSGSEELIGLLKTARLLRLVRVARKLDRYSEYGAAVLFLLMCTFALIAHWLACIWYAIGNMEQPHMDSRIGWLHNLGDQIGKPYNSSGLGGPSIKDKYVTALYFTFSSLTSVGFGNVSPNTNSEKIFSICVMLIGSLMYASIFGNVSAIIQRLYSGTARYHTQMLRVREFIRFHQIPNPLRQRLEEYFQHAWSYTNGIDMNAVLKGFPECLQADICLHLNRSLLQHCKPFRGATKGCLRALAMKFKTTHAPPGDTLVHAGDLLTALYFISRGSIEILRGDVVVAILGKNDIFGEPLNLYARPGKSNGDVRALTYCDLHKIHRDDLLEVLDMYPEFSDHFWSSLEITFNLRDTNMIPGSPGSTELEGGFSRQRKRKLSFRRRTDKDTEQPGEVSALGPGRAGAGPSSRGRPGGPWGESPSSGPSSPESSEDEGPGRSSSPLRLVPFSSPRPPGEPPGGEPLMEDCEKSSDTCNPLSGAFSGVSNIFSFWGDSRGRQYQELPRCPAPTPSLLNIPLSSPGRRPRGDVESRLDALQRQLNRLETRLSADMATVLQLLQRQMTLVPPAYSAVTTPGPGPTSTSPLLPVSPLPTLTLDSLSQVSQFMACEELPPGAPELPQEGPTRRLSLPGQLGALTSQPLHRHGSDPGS
Source text: hERG-Channel Assay (Assay 2)
Cells: HEK (human embryonic kidney) 293 cells were stably transfected with hERG cDNA.
Cells were superfused with a bath solution containing (mM): NaCl (137), KCl (4.0), MgCl2 (1.0), CaCl2 (1.8), Glucose (10), HEPES (10), pH 7.4 with NaOH. Patch pipettes were made from borosilicate glass tubing using a horizontal puller and filled with pipette solution containing (mM): K-aspartate (130), MgCl2 (5.0), EGTA (5.0), K2ATP (4.0), HEPES (10.0), pH 7.2 with KOH. Resistance of the microelectrodes was in the range between 2 and 5 MΩ.
Stimulation and Recording:
Membrane currents were recorded using an EPC-10 patch clamp amplifier and PatchMaster software. hERG-mediated membrane currents were recorded at 35° C., using the whole-cell configuration of the patch-clamp technique. Transfected HEK293 cells were clamped at a holding potential of −60 mV and hERG-mediated inactivating tail currents were elicited using a pulse pattern with fixed amplitudes (activation/inactivation: 40 mV for 2000 ms; recovery: −120 mV for 2 ms; ramp to 40 mV in 2 ms; inactivating tail current: 40 mV for 50 ms) repeated at 15 s intervals. During each inter-pulse interval, 4 pulses scaled down by a factor of 0.2 were recorded for a P/n leak subtraction procedure. Rs compensation was employed up to a level that safely allowed recording devoid of ringing.
Compound Preparation and Application:
The different concentrations of the test compounds were applied sequentially on each of the different cells investigated. A steady state level of baseline current was measured for at least 6 sweeps prior to the application of the first test compound concentration.
The test compound was dissolved in DMSO to yield a master stock solution which was diluted further in DMSO to stock solutions needed for the lower concentrations. Final dilutions in extracellular buffer were prepared freshly from these stocks by a 1:1000 dilution step each before starting the experiments.
Peak current amplitudes were measured 3 ms after the ramp to +40 mV. For baseline and each concentration, the peak currents of the three last sweeps before application of the next concentration were averaged. Residual currents (I/I0) were calculated for each cell as the fraction of actual average peak current and average baseline peak current.

[3] = In Vitro Phospholipidosis Assay (Assay 3), Nile red staining; format: cell-based, human; settings: human, first effect concentration, U937 cells, read-out: Phospholipidosis FEC IC50 μM (assay 3)
Method: In Vitro Phospholipidosis Assay (Assay 3)
The phospholipidogenic potential of test compounds was assayed using the human hematopoetic U937 cell line. The test principle was to analyze the phospholipid content by staining the cells with the fluorescent dye Nile red.
U937 cells were seeded into cell culture plates at 0.5×10^6 cells/mL in RPMI medium containing 10% FBS, 1% DMSO, and 0.005% gentamicin. The cells were cultivated with or without different concentrations of test compound for 48 h under standard culture conditions.
For harvesting, the cells were centrifuged at 130×g for 4 min and washed once with PBS. Then, 2×0.5 mL cell suspensions were prepared for non-fixed cell measurement (0.5 mL for propidium iodide (PI) viability measurement and 0.5 mL for Nile red measurement).
The remaining cells were fixed with 3.7% formaldehyde for 30 min. After a further centrifugation step, cells were resuspended with 1.3 mL Nile red working solution (1 μg/mL) and incubated for 5 min at rt. The cell suspension was washed twice with 3 mL PBS and centrifuged with 130×g for 4 min. The supernatant was discarded and the cells were resuspended with 0.5 mL PBS and kept for flow cytometry measurement.
For Nile red staining of the 0.5 mL non-fixed cell samples, 50 μL of a ready to use Nile red solution (10 μg/mL) were added per sample. Samples were kept on ice for 5 min. Thereafter, they were washed once with 4 mL PBS (4° C., 250×g for 8 min) and finally resuspended in 400 μL PBS and kept for flow cytometry measurement.
For the viability measurement, 12.5 μL of the ready to use PI solution (10 μg/mL) were added to the 0.5 mL non-fixed cell suspension. After 15 min of incubation on ice, the samples were measured by flow cytometry using a Coulter Epics XL/MCL flow cytometer.
The viability of the cells of each sample was determined by flow cytometry measurement of the PI content at channel 2 (568-590 nm). Cut-off gates for the fluorescence-dependent differentiation between live and dead cells were defined based on the analysis of cell culture medium control samples.
Only samples with a cell viability of >=90% relative to control samples were analyzed for phospholipidosis. Each Nile red sample (non-fixed and fixed samples) was measured by flow cytometry at channel 1 (504-541 nm) and channel 4 (660-680 nm).
For each channel, relative Nile red fluorescence intensity of a test sample was calculated compared to control samples and expressed as a percentage of control fluorescence intensity. The assessment of the phospholipidogenic potential and the first effective concentration (FEC) of a test compound was done manually based on the fluorescence intensities at both wavelengths for the fixed cells, as well as for the non-fixed cells.

Chain of truncated human beta-secretase, BACE1 (amino acids 1-454) (P56817 22-454): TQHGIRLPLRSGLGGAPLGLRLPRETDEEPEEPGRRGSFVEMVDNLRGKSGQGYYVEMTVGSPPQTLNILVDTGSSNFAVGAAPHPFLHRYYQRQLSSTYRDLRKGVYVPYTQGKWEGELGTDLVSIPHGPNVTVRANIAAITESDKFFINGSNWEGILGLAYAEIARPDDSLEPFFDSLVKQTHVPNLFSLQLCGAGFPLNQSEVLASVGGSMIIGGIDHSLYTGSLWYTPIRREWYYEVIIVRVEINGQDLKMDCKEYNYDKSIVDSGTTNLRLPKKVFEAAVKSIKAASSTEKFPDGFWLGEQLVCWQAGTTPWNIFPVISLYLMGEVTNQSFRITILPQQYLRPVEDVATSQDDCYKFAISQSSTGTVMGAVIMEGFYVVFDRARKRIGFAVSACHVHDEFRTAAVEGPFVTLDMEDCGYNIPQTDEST

SMILES | IC50 [1] [nM] | inhibition at 10 µM [2] [%] | IC50 at 48 h [3] [µM]
C[C@@H]1C[C@@]2(Cc3ccc(C#N)cc3[C@]23N=C(N)N(CCC(F)(F)F)C3=O)C[C@H](C)[C@H]1O [Example 1] | 14.6 | 13 | 400
C[C@@H]1C[C@@]2(Cc3ccc(C#N)cc3[C@]23N=C(N)N(CC(C)(C)F)C3=O)C[C@H](C)[C@H]1O [Example 2] | 10.3 | 4.5 | 400
C[C@@H]1C[C@@]2(Cc3ccc(C#N)cc3[C@]23N=C(N)N(CC2(F)CCOCC2)C3=O)C[C@H](C)[C@H]1O [Example 4] | 2.7 | 13 | 800
CC[C@@H]1C[C@@]2(Cc3ccc(C#N)cc3[C@]23N=C(N)N(CC(C)(C)F)C3=O)C[C@H](C)[C@H]1O [Example 7] | 3.4 | 15 | 400
CC[C@@H]1C[C@]2(CC[C@H]1O)Cc1ccc(C#N)cc1[C@]21N=C(N)N(CC(C)(C)F)C1=O [Example 9] | 10.7 | 2.5 | 400
